From patent US8927560B2, “4-Aza-2, 3-didehydropodophyllotoxin compounds and process for the preparation thereof” (Council of Scientific & Industrial Research, priority 2010, dated 2015)

Tests used:
Hop62 = experiment: SRB in vitro cytotoxicity assay, Hop62 lung cancer cells; format: cell-based; settings: Homo sapiens, HOP-62, 48 h drug exposure, read-out: In vitro anticancer activity GI50, Lung Hop62
Text: (§1) Compounds 4a-4z and 4aa-4ae have been evaluated for their in vitro cytotoxicity in selected human cancer cell lines i.e., colon (Colo205), lung (Hop-62, A549), cervix (SiHa), prostate (PC3), oral (KB, DWD, Gurav), Ovarian (A-2780) and breast (MCF7, Zr-75-1) origin by employing the sulforhodamine B (SRB) assay method (Skehn, P.; Storeng, R.; Scudiero, A.; Monks, J.; MeMohan, D.; Vistica, D.; Jonathan, T. W.; Bokesch, H.; Kenney, S.; Boyd M. R. J. Natl. Cancer Inst. 1990, 82, 1107).
(§2) The synthesized compounds have been evaluated for their in vitro cytotoxicity in human cancer cell lines. A protocol of 48 h continuous drug exposure has been used and a sulforhodamine B (SRB) protein assay has been used to estimate cell viability or growth. The cell lines were grown in DMEM medium containing 10% fetal bovine serum and 2 mM L-glutamine and were inoculated into 96 well microtiter plates in […] at plating densities depending on the doubling time of individual cell lines. The microliter plates were incubated at 37_C, 5% CO2, 95% air, and 100% relative humidity for 24 h prior to addition of experimental drugs. Aliquots of […] of the drug dilutions were added to the appropriate microliter wells already containing […] of cells, suiting in the required final drug concentrations. For each compound four concentrations (0.1, 1, 10 and 100 uM) were evaluated and each was done in triplicate wells. Plates were incubated further for 48 h and assay was terminated by the addition of […] of cold trichloro acetic acid (TCA) (final concentration, 10% TCA) and incubated for 60 min at 4_C. The plates were washed five times with tap water and airdried. Sulforhodamine B (SRB) solution ([…]) at 0.4% (w/v) in 1% acetic acid was added to each of the cells, and plates were incubated for 20 min at room temperature. The residual dye was removed by washing five times with 1% acetic acid. The plates were airdried. Bound stain was subsequently eluted with 10 mM trizma base, and the absorbance was read on an ELISA plate reader at a wavelength of 540 nm with 690 nm reference wavelengths. Percent growth was calculated on a plate by plate basis for test wells relative to control wells. The above determinations were repeated three times. Percentage growth was expressed as the (ratio of average absorbance of the test well to the average absorbance of the control wells)*100. Growth inhibition of 50% (GI50) was calculated from [(Ti−Tz)/(C−Tz)]*100 ¼ 50, which is the drug concentration resulting in a 50% reduction in the net protein increase (as measured by SRB staining) in control cells during the drug incubation. Where, Tz ¼ Optical density at time zero, OD of control ¼ C, and OD of test growth in the presence of drug ¼ Ti.

KB = experiment: SRB in vitro cytotoxicity assay, KB oral cancer cells; format: cell-based; settings: Homo sapiens, 48 h drug exposure, read-out: In vitro anticancer activity GI50, Oral KB
Text: as §1, §2

MCF7 = experiment: SRB in vitro cytotoxicity assay, MCF7 breast cancer cells; format: cell-based; settings: Homo sapiens, 48 h drug exposure, read-out: In vitro anticancer activity GI50, Breast MCF7
Text: as §1, §2

A-549 = experiment: SRB in vitro cytotoxicity assay, A-549 lung cancer cells; format: cell-based; settings: Homo sapiens, A549, 48 h drug exposure, read-out: In vitro anticancer activity GI50, Lung A-549
Text: as §1, §2

Zr-75-1 = experiment: SRB in vitro cytotoxicity assay, Zr-75-1 breast cancer cells; format: cell-based; settings: Homo sapiens, 48 h drug exposure, read-out: In vitro anticancer activity GI50, Breast Zr-75-1
Text: as §1, §2

DWD = experiment: SRB in vitro cytotoxicity assay, DWD oral cancer cells; format: cell-based; settings: Homo sapiens, 48 h drug exposure, read-out: In vitro anticancer activity GI50, Oral DWD
Text: as §1, §2

Colo 205 = experiment: SRB in vitro cytotoxicity assay, Colo 205 colon cancer cells; format: cell-based; settings: Homo sapiens, 48 h drug exposure, read-out: In vitro anticancer activity GI50, Colon Colo 205
Text: as §1, §2

A-2780 = experiment: SRB in vitro cytotoxicity assay, A-2780 ovarian cancer cells; format: cell-based; settings: Homo sapiens, A2780, 48 h drug exposure, read-out: In vitro anticancer activity GI50, Ovarian A-2780
Text: as §1, §2

Gurav = experiment: SRB in vitro cytotoxicity assay, Gurav oral cancer cells; format: cell-based; settings: Homo sapiens, 48 h drug exposure, read-out: In vitro anticancer activity GI50, Oral Gurav
Text: as §1, §2

Structure (SMILES) | GI50 (Hop62) [µM] | melting point [°C] | GI50 (KB) [µM] | GI50 (MCF7) [µM] | GI50 (A-549) [µM] | GI50 (Zr-75-1) [µM] | GI50 (DWD) [µM] | GI50 (Colo 205) [µM] | GI50 (A-2780) [µM] | GI50 (Gurav) [µM]
COc1ccc(-c2noc3c2C(c2cc(OC)c(OC)c(OC)c2)C2=C(COC2=O)N3)cc1 (stereo not drawn) [Compound 4aa, 3-(4-methoxyphenyl)-4-(3,4,5-trimethoxyphenyl)-4,5,7,8 tetrahydrofuro[3′,4′:5,6]pyrido[3,2-d]isoxazol-5-one] | 2.5 | 218 to 219 | – | – | – | – | – | – | – | –
COc1ccc(C2C3=C(COC3=O)Nc3onc(-c4ccc(Cl)cc4)c32)cc1O (stereo not drawn) [Compound 4ad, 3-(4-chlorophenyl)-4-(3-hydroxy-4-methoxyphenyl)-4,5,7,8-tetrahydrofuro[3′,4′:5,6]pyrido[3,2-d]isoxazol-5-one] | – | 245 to 246 | 2.7 | – | – | – | – | – | – | –
COc1cc(C2C3=C(COC3=O)Nc3c2cc(OC)c(OC)c3OC)ccc1O (stereo not drawn) [Compound 4ae, 9-(4-hydroxy-3-methoxyphenyl)-5,6,7-trimethoxy-1,3,4,9-tetrahydrofuro[3,4-b]quinolin-1-one] | – | 290 to 291 | – | 2.9 | – | – | – | – | – | –
COc1nc2c(c(OC)n1)C(c1ccc(O)c(OC)c1)C1=C(COC1=O)N2 (stereo not drawn) [Compound 4b, 5-(4-hydroxy-3-methoxyphenyl)-2,4-dimethoxy-5,6,8,9-tetrahydrofuro[3′,4′:5,6]pyrido[2,3-d]pyrimidin-6-one] | 2.7 | 294 to 296 | – | – | – | – | – | – | – | –
COc1nc2c(c(OC)n1)C(c1ccc(OC)c(O)c1)C1=C(COC1=O)N2 (stereo not drawn) [Compound 4c, 5-(3-hydroxy-4-methoxyphenyl)-2,4-dimethoxy-5,6,8,9-tetrahydrofuro[3′,4′:5,6]pyrido[2,3-d]pyrimidin-6-one] | 2.8 | 284 to 285 | – | – | – | – | – | – | – | –
COc1nc2c(c(OC)n1)C(c1ccc(F)c(OC)c1)C1=C(COC1=O)N2 (stereo not drawn) [Compound 4d, 5-(4-fluoro-3-methoxyphenyl)-2,4-dimethoxy-5,6,8,9-tetrahydrofuro[3′,4′:5,6]pyrido[2,3-d]pyrimidin-6-one] | – | 267 to 270 | 2.2 | – | 2.6 | – | – | – | – | –
COc1cc(C2C3=C(COC3=O)Nc3ccc4cc[nH]c4c32)cc(OC)c1OC (stereo not drawn) [Compound 4e, 10-(3,4,5-trimethoxyphenyl)-6,7,9,10-tetrahydro-1H-furo[3,4-b]pyrrolo[2,3-f]quinolin-9-one] | – | 299 to 301 | 2 | – | 2.4 | 2.8 | 2.8 | 2.3 | 2.7 | –
COc1cc(C2C3=C(COC3=O)Nc3ccc4cc[nH]c4c32)ccc1O (stereo not drawn) [Compound 4f, 10-(4-hydroxy-3-methoxyphenyl)-6,7,9,10-tetrahydro-1H-furo[3,4-b]pyrrolo[2,3-f]quinolin-9-one] | – | 301 to 303 | – | 2.3 | – | 2 | 2.4 | 2.5 | – | 2.6
COc1ccc(C2C3=C(COC3=O)Nc3ccc4cc[nH]c4c32)cc1O (stereo not drawn) [Compound 4g, 10-(3-hydroxy-4-methoxyphenyl)-6,7,9,10-tetrahydro-1H-furo[3,4-b]pyrrolo[2,3-f]quinolin-9-one] | 2.2 | 297 to 299 | 2.2 | 2.9 | 2.3 | 2.8 | – | 0.19 | 2.7 | 2.3
COc1cc(C2C3=C(COC3=O)Nc3ccc4cc[nH]c4c32)ccc1F (stereo not drawn) [Compound 4h, 10-(4-fluoro-3-methoxyphenyl)-6,7,9,10-tetrahydro-1H-furo[3,4-b]pyrrolo[2,3-f]quinolin-9-one] | 2.6 | 170 to 172 | 0.17 | 2.1 | 2.2 | 2.5 | 2.6 | – | 2.3 | 2.5
COc1ccc(C2C3=C(COC3=O)Nc3ccc4cc[nH]c4c32)cc1[N+](=O)[O-] (stereo not drawn) [Compound 4i, 10-(4-methoxy-3-nitrophenyl)-6,7,9,10-tetrahydro-1H-furo[3,4-b]pyrrolo[2,3-f]quinolin-9-one] | – | – | – | – | – | – | – | 2.4 | – | –
COc1cc(C2C3=C(COC3=O)Nc3ccc4cc(C)[nH]c4c32)ccc1F (stereo not drawn) [Compound 4l, 10-(4-fluoro-3-methoxyphenyl)-2-methyl-6,7,9,10-tetrahydro-1H-furo[3,4-b]pyrrolo[2,3-f]quinolin-9-one] | 2.4 | 198 to 199 | – | 2.6 | – | – | 2.1 | – | 2.4 | 2.5
COc1ccc(C2C3=C(COC3=O)Nc3ccc4cc(C)[nH]c4c32)c(F)c1 (stereo not drawn) [Compound 4m, 10-(2-fluoro-4-methoxyphenyl)-2-methyl-6,7,9,10-tetrahydro-1H-furo[3,4-b]pyrrolo[2,3-f]quinolin-9-one] | – | 205 to 207 | – | < 0.1 | – | – | – | – | – | –
COc1ccc(C2C3=C(COC3=O)Nc3ccc4cn[nH]c4c32)cc1O (stereo not drawn) [Compound 4p, 10-(3-hydroxy-4-methoxyphenyl)-6,7,9,10-tetrahydro-1H-furo[3,4-b]pyrazolo[3,4-f]quinolin-9-one] | 2.6 | 243 to 245 | – | – | – | – | – | 2.6 | – | –
COc1cc(C2C3=C(COC3=O)Nc3ccc4cn[nH]c4c32)ccc1F (stereo not drawn) [Compound 4q, 10-(4-fluoro-3-methoxyphenyl)-6,7,9,10-tetrahydro-1H-furo[3,4-b]pyrazolo[3,4-f]quinolin-9-one] | – | 307 to 309 | – | 2.7 | 2.3 | – | – | – | – | 2.6
COc1cc(C2C3=C(COC3=O)Nc3ccc4ncsc4c32)cc(OC)c1OC (stereo not drawn) [Compound 4s, 10-(3,4,5-trimethoxyphenyl)-6,7,9,10-tetrahydrofuro[3,4-b][1,3]thiazolo[5,4-f]quinolin-9-one] | – | 309 to 310 | 2.1 | – | 2.4 | 2.1 | 2.5 | 2.5 | 2.3 | –
COc1cc(C2C3=C(COC3=O)Nc3ccc4nc(C)sc4c32)ccc1[N+](=O)[O-] (stereo not drawn) [Compound 4w, 10-(3-methoxy-4-nitrophenyl)-2-methyl-6,7,9,10-tetrahydrofuro[3,4-b][1,3]thiazolo[5,4-f]quinolin-9-one] | – | 190 to 191 | – | 0.15 | – | – | – | – | – | –
COc1ccc(C2C3=C(COC3=O)Nc3ccc4nc(S)[nH]c4c32)cc1O (stereo not drawn) [Compound 4x, 10-(3-hydroxy-4-methoxyphenyl)-2-sulfanyl-6,7,9,10-tetrahydro-1H-furo[3,4-b]imidazo[4,5-f]quinolin-9-one] | – | 334 to 337 | – | 2.7 | – | – | – | – | – | –
COc1cc(C2C3=C(COC3=O)Nc3ccc4nn[nH]c4c32)cc(OC)c1OC (stereo not drawn) [Compound 4y, 10-(3,4,5-trimethoxyphenyl)-6,7,9,10-tetrahydro-1H-furo[3,4-b][1,2,3]triazolo[4,5-f]quinolin-9-one] | – | 324 to 325 | 2.9 | – | – | – | – | – | – | –
COc1ccc(C2C3=C(COC3=O)Nc3ccc4nn[nH]c4c32)c(F)c1 (stereo not drawn) [Compound 4z, 10-(2-fluoro-4-methoxyphenyl)-6,7,9,10-tetrahydro-1H-furo[3,4-b][1,2,3]triazolo[4,5-f]quinolin-9-one] | – | 308 to 310 | – | < 0.1 | – | – | – | – | – | –
